Test results published in patent US12708659B2, “Polyphenolic insulin” (KIMBALL WESTWARD LLC, priority 2020, dated 2026).

Tests used:
[1] = Preservation of quercetin-containing insulin hexameric complexes by small phenolic compounds; type: physicochemical; conditions: as small phenolic compound
insulin = insulin (Homo sapiens, UniProt P01308); conditions: does not require zinc ions; read-out: dissociation constant Kd of dimerization; cited from earlier work
Chain of insulin (P01308 25-54 limits assumed): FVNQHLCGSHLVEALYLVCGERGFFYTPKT
Chain of insulin (P01308 90-110 limits assumed): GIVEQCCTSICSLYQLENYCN

Compound | preservation of insulin hexameric complexes that contained quercetin [1] | Kd (insulin)
O=C(O)c1ccc(O)cc1 [4-hydroxybenzoic acid] | better preserve insulin hexameric complexes | –
O=C([O-])c1ccccc1.[Na+] [sodium benzoate] | better preserve insulin hexameric complexes | –
insulin: anabolic hormone of A-chain and B-chain linked by disulfide bonds | – | ~10 µM
